We go through 11 compounds from patent US7447594B2, “Molecular cardiotoxicology modeling” (Ocimum Biosolutions, Inc., priority 2001, dated 2008).

One series concerns cellular glutathione. Conditions: cited from earlier work.
The conditions of series [1]: cited from earlier work.
On the set-up of series [2]: species or system male Sprague-Dawley rats. Conditions: rat, in vivo, iv. As to the method: Amphotericin B is a polyene, antifungal antibiotic used to treat fungal infections. Its clinical utility is limited by its nephrotoxicity and cardiotoxicity.
The low and high dose level for each compound are provided in the chart below.
Heart • A sagittal cross-section containing portions of the two atria and of the two ventricles was preserved in 10% NBF. The remaining heart was frozen in liquid nitrogen and stored at ˜−80° C.

For series [3] the following is noted: person, small quantity ingested; cited from earlier work.
The conditions of series [4]: cited from earlier work. This is another data set of the same source.
The conditions of series [5]: rat, in vivo; cited from earlier work.
For series [6] the following is noted: high-dose patients; cited from earlier work.
For series [7] the following is noted: cited from earlier work. This is another data set of the same source.
For series [8] the following is noted: of 19 women treated with cyclophosphamide, thiotepa, and carboplatin; cited from earlier work.
For series [9] the following is noted: child, high-dose cyclophosphamide; cited from earlier work.
For series [10] the following is noted: cited from earlier work. The source holds these as a separate data set.
For series [11] the following is noted: intravenous injection, four hours post-dose; cited from earlier work.
For series [12] the following is noted: cited from earlier work; for myocardial necrosis: young and mature rats.
The conditions of series [13]: rats 3 months to 2 years old, dosed over two days; cited from earlier work.
The conditions of series [14]: normotensive rats; cited from earlier work.
The conditions of series [15]: patients that do not have heart failure or use insulin; cited from earlier work.

With `C=CC=O` [Acrolein, acrolein], the cellular glutathione levels result in the series on cellular glutathione was “decrease cellular glutathione levels”.
In the case of `COc1cccc2c1C(=O)c1c(O)c3c(c(O)c1C2=O)C[C@@](O)(C(=O)CO)C[C@@H]3O[C@H]1C[C@H](N)[C@H](O)[C@H](C)O1` [adriamycin, doxorubicin], the “serum enzymes (myocardial toxicity)” value in series [1] (rat, in vivo) is “elevation of serum enzymes such as aspartate transaminase, lactate dehydrogenase, and creatine phosphokinase”.
With `C[C@@H]1[C@H](O)[C@@H](C)/C=C/C=C/C=C/C=C/C=C/C=C/C=C/[C@H](O[C@@H]2O[C@H](C)[C@@H](O)[C@H](N)[C@@H]2O)C[C@@H]2O[C@](O)(C[C@@H](O)C[C@@H](O)[C@H](O)CC[C@@H](O)C[C@@H](O)CC(=O)O[C@H]1C)C[C@H](O)[C@H]2C(=O)O` [amphotericin B], the cardiomyopathy entry in series [2] is listed as “some early signs of cardiomyopathy”.
Consider `C[C@H](CS)C(=O)N1CCC[C@H]1C(=O)O` [captopril], for which, in series [1] (captopril pre-treatment before adriamycin), the “serum enzyme levels and white blood cell counts” value is reported as “significant reduction in serum enzyme levels as well as restoration of white blood cell counts”.
Regarding `CC(C)(C)NCC(O)c1cc(Cl)c(N)c(Cl)c1` (centres unmarked) [clenbuterol], the “clinical findings after ingestion” value in series [3] was “sustained sinus tachycardia, hypokalemia, hypophosphatemia, and hypomagnesemia”. Besides, the aortic root dimensions result in series [4] (in vivo) is given as “significantly increased aortic root dimensions”. Moreover, the left ventricular dimensions entry in series [4] (vs exercised and control mares) was “significantly higher left ventricular internal dimension and interventricular septal wall thickness at end diastole”. In addition, the muscle hypertrophy result in [5] was “hypertrophy of the heart and latissimus dorsi muscle”.
For `O=P1(N(CCCl)CCCl)NCCCO1` (centres unmarked) [cyclophosphamide], the “patients who died of congestive heart failure” value in series [6] was “Six”. For the same compound, the “patients with clinical cardiotoxicity who were in the high-dose group” value in [7] (out of five patients who developed clinical cardiotoxicity) was “four”. In addition, the “left ventricular mass index” value in [7] (twice-daily high-dose treatment (174+/−34 mg/kg), within a week) was “increase in left ventricular mass index”. Also, the “patients who developed moderate congestive heart failure” value in series [8] is given as “six”. Moreover, in series [9], the cardiac findings result is “cardiac arrhythmias and intractable hypotension”.
On to `COc1cccc2c1C(=O)c1c(O)c3c(c(O)c1C2=O)C[C@@](O)(C(=O)CO)C[C@@H]3O[C@H]1C[C@H](N)[C@@H](O)[C@H](C)O1` [epirubicin], for which the “of these patients, deteriorated into congestive heart failure” value in [10] (human, in vivo) is on record as 20%. Besides, the “patients with a 25% relative reduction in left ventricular ejection fraction” value in [10] (three years after epirubicin treatment, 120 patients) is recorded as “Approximately 59%”.
In the case of `NNc1nncc2ccccc12` [hydralazine], in series [11], the “early focal myocardial lesions (histopathology)” value was “Lesions were observed”. Further, in series [12] (rat, in vivo), the “blood pressure and heart rate effects” value was “Hypotension and reflex tachycardia”. Moreover, the myocardial necrosis entry in series [12] is listed as “Myocardial necrosis was observed in both age groups”.
For the compound `CC(C)NCC(O)c1ccc(O)c(O)c1` (centres unmarked) [isoproterenol], the myocardial necrosis result in series [12] was “Myocardial necrosis was observed in both age groups”.
`Nc1cc(N2CCCCC2)nc(N)[n+]1[O-]` [minoxidil]: the heart lesions result in [13] is “interstitial hemorrhages at all dose levels”. Further, the myocardial necrosis result in series [12] was “Myocardial necrosis was observed in both age groups”. The cardiac enlargement entry in series [14] was “enlargement of the left ventricle, right ventricle, and interventricular septum”.
With `CN(CCOc1ccc(CC2SC(=O)NC2=O)cc1)c1ccccn1` (centres unmarked) [rosiglitazone], the edema entry in [15] is given as “moderate-to-severe edema”.
